The source of these data is US9708334B2, “Substituted 2,4,5,6-tetrahydropyrrolo[3,4-c]pyrazole and 4,5,6,7-tetrahydro-2H-pyrazolo[4,3-c]pyridine compounds as GlyT1 inhibitors” (DART NEUROSCIENCE (CAYMAN) LTD., priority 2014, dated 2017).

In the assay the target is T1, GlyT1 (Homo sapiens, UniProt P48067).
T1 construct: expressed in transfected cells
T1 sequence (P48067 1-706): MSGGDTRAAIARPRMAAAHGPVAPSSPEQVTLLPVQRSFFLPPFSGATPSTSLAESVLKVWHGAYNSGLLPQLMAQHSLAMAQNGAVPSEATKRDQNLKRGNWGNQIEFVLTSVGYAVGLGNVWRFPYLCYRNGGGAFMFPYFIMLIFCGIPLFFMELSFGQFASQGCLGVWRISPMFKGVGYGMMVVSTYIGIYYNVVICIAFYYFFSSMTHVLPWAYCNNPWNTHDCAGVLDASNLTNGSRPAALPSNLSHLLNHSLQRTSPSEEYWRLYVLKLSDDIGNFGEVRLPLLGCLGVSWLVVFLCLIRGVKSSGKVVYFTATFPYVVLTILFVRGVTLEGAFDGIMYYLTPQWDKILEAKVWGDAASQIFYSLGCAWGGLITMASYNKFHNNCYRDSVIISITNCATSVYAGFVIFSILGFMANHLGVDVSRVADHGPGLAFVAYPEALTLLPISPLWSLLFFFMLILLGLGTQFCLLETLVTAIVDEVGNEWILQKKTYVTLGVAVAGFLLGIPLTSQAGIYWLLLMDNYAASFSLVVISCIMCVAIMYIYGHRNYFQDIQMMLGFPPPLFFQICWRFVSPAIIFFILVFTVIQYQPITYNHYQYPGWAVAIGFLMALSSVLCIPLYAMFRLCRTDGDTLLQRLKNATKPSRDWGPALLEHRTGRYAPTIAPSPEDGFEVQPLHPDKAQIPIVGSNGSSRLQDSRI
Put plainly: Glycine Transporter 1 (GlyT1) uptake assay, scintillation proximity assay of [14C]-glycine uptake. The class given is cell-based. Particulars: SPA, four parameter logistic fit, read-out: GlyT1 (pIC50) (converted). As to the method: Glycine Transporter 1 (GlyT1) Uptake Assay
Plates were then read on a MicroBeta plate counter (Perkin Elmer). Dose-response data for tested compounds were analyzed and curves were fit using a four parameter logistic fit to determine IC50 values. […]
For orientation: Scintillation proximity formats need no separation of bound from free tracer.
For the compound `CC(C)COc1ccc(S(C)(=O)=O)cc1C(=O)N1Cc2cn(-c3ccccc3)nc2C1` [Example 51, 5-[5-Methanesulfonyl-2-(2-methylpropoxy)benzoyl]-2-phenyl-2H 4H 5H 6H-pyrrolo[3,4-c]pyrazole], the IC50 was < 100 nM.
The result for `CC(C)COc1ccc(S(C)(=O)=O)cc1C(=O)N1Cc2cn(-c3cccc(C(F)(F)F)c3F)nc2C1` [Example 52, 2-[2-Fluoro-3-(trifluoromethyl)phenyl]-5-[5-methanesulfonyl-2-(2-methylpropoxy)benzoyl]-2H 4H 5H 6H-pyrrolo[3,4-c]pyrazole] reads < 100 nM; that for `CC(C)COc1ccc(S(C)(=O)=O)cc1C(=O)N1Cc2cn(-c3cccc(C(F)(F)F)c3)nc2C1` [Example 53, 5-[5-Methanesulfonyl-2-(2-methylpropoxy)benzoyl]-2-[3-(trifluoromethyl)phenyl]-2H 4H 5H 6H-pyrrolo[3,4-c]pyrazole], < 100 nM; that for `CS(=O)(=O)c1ccc(N2CCC(F)(F)CC2)c(C(=O)N2Cc3cn(-c4ccccc4)nc3C2)c1` [Example 54, 4 4-Difluoro-1-(4-methanesulfonyl-2-{2-phenyl-2H 4H 5H 6H-pyrrolo[3,4-c]pyrazole-5-carbonyl}phenyl)piperidine], < 100 nM.
On to `CS(=O)(=O)c1ccc(N2CCC(F)(F)CC2)c(C(=O)N2Cc3cn(-c4cccc(C(F)(F)F)c4)nc3C2)c1` [Example 55, 4 4-Difluoro-1-(4-methanesulfonyl-2-{2-[3-(trifluoromethyl)phenyl]-2H 4H 5H 6H-pyrrolo[3,4-e]pyrazole-5-carbonyl}phenyl)piperidine], for which the IC50 was < 100 nM.
With `CS(=O)(=O)c1ccc(N2CCC(F)(F)CC2)c(C(=O)N2Cc3cn(-c4ccc(F)cc4)nc3C2)c1` [Example 56, 4 4-Difluoro-1-{2-[2-(4-fluorophenyl)-2H 4H 5H 6H-pyrrolo[3,4-c]pyrazole-5-carbonyl]-4-methanesulfonylphenyl}piperidine] the figure was < 100 nM; with `Cc1c(F)ccc(-n2cc3c(n2)CN(C(=O)c2cc(S(C)(=O)=O)ccc2O[C@@H](C)C(F)(F)F)C3)c1F` [Example 58, 2-(2 4-Difluoro-3-methylphenyl)-5-(5-methanesulfonyl-2-{[(2S)-1 1 1-trifluoropropan-2-yl]oxy}benzoyl)-2H 4H 5H 6H-pyrrolo[3,4-c]pyrazole], < 100 nM; with `C[C@H](Oc1ccc(S(C)(=O)=O)cc1C(=O)N1Cc2cn(-c3cc(Cl)ccc3F)nc2C1)C(F)(F)F` [Example 59, 2-(5-Chloro-2-fluorophenyl)-5-(5-methanesulfonyl-2-{[(2S)-1 1 1-trifluoropropan-2-yl]oxy}benzoyl)-2H 4H 5H 6H-pyrrolo[3,4-c]pyrazole], < 100 nM.
The result for `CC(C)Oc1ccc(S(C)(=O)=O)cc1C(=O)N1Cc2cn(-c3ccccc3F)nc2C1` [Example 60, 2-(2-Fluorophenyl)-5-[5-methanesulfonyl-2-(propan-2-yloxy)benzoyl]-2H 4H 5H 6H-pyrrolo[3,4-c]pyrazole] reads < 100 nM.
The result for `Cc1c(F)ccc(-n2cc3c(n2)CN(C(=O)c2cc(S(C)(=O)=O)ccc2OC(C)C)C3)c1F` [Example 61, 2-(2 4-Difluoro-3-methylphenyl)-5-[5-methanesulfonyl-2-(propan-2-yloxy)benzoyl]-2H 4H 5H 6H-pyrrolo[3,4-c]pyrazole] reads < 100 nM.
Regarding `CC(C)Oc1ccc(S(C)(=O)=O)cc1C(=O)N1Cc2cn(-c3cc(Cl)ccc3F)nc2C1` [Example 62, 2-(5-Chloro-2-fluorophenyl)-5-[5-methanesulfonyl-2-(propan-2-yloxy)benzoyl]-2H 4H 5H 6H-pyrrolo[3,4-c]pyrazole], the IC50 was < 100 nM.
The result for `CC(C)(C)COc1ccc(S(C)(=O)=O)cc1C(=O)N1Cc2cn(-c3ccccc3F)nc2C1` [Example 63, 5-[2-(2 2-Dimethylpropoxy)-5-methanesulfonylbenzoyl]-2-(2-fluorophenyl)-2H 4H 5H 6H-pyrrolo[3,4-c]pyrazole] reads < 100 nM.
For the compound `Cc1c(F)ccc(-n2cc3c(n2)CN(C(=O)c2cc(S(C)(=O)=O)ccc2OCC(C)(C)C)C3)c1F` [Example 64, 2-(2 4-Difluoro-3-methylphenyl)-5-[2-(2 2-dimethylpropoxy)-5-methanesulfonylbenzoyl]-2H 4H 5H 6H-pyrrolo[3,4-c]pyrazole], the IC50 was < 100 nM.
With `CC(C)(C)COc1ccc(S(C)(=O)=O)cc1C(=O)N1Cc2cn(-c3cc(Cl)ccc3F)nc2C1` [Example 65, 2-(5-Chloro-2-fluorophenyl)-5-[2-(2 2-dimethylpropoxy)-5-methanesulfonylbenzoyl]-2H 4H 5H 6H-pyrrolo[3,4-c]pyrazole] the figure was < 100 nM; with `CC(C)COc1ccc(S(C)(=O)=O)cc1C(=O)N1Cc2cn(-c3ccccc3F)nc2C1` [Example 66, 2-(2-Fluorophenyl)-5-[5-methanesulfonyl-2-(2-methylpropoxy)benzoyl]-2H 4H 5H 6H-pyrrolo[3,4-c]pyrazole], < 100 nM.
With `Cc1c(F)ccc(-n2cc3c(n2)CN(C(=O)c2cc(S(C)(=O)=O)ccc2OCC(C)C)C3)c1F` [Example 67, 2-(2 4-Difluoro-3-methylphenyl)-5-[5-methanesulfonyl-2-(2-methylpropoxy)benzoyl]-2H 4H 5H 6H-pyrrolo[3,4-c]pyrazole] the figure was < 100 nM.
The result for `CC(C)COc1ccc(S(C)(=O)=O)cc1C(=O)N1Cc2cn(-c3cc(Cl)ccc3F)nc2C1` [Example 68, 2-(5-Chloro-2-fluorophenyl)-5-[5-methanesulfonyl-2-(2-methylpropoxy)benzoyl]-2H 4H 5H 6H-pyrrolo[3,4-c]pyrazole] reads < 100 nM; that for `Cc1c(F)ccc(-n2cc3c(n2)CN(C(=O)c2cc(S(C)(=O)=O)ccc2N2CCC(F)(F)CC2)C3)c1F` [Example 70, 1-{2-[2-(2 4-Difluoro-3-methylphenyl)-2H 4H 5H 6H-pyrrolo[3,4-c]pyrazole-5-carbonyl]-4-methanesulfonylphenyl}-4 4-difluoropiperidine], < 100 nM; that for `CS(=O)(=O)c1ccc(N2CCC(F)(F)CC2)c(C(=O)N2Cc3cn(-c4cc(Cl)ccc4F)nc3C2)c1` [Example 71, 1-{2-[2-(5-Chloro-2-fluorophenyl)-2H 4H 5H 6H-pyrrolo[3,4-c]pyrazole-5-carbonyl]-4-methanesulfonylphenyl}-4 4-difluoropiperidine], < 100 nM.
In the case of `CCS(=O)(=O)c1ccc(O[C@@H](C)C(F)(F)F)c(C(=O)N2Cc3cn(-c4cccc(C)c4)nc3C2)c1` [Example 72, 5-[5-(Ethanesulfonyl)-2-{[(2S)-1 1 1-trifluoropropan-2-yl]oxy}benzoyl]-2-(3-methylphenyl)-2H 4H 5H 6H-pyrrolo[3,4-c]pyrazole], the IC50 is < 100 nM.
The result for `CCS(=O)(=O)c1ccc(OC(C)C)c(C(=O)N2Cc3cn(-c4ccccc4)nc3C2)c1` [Example 73, 5-[5-(Ethanesulfonyl)-2-(propan-2-yloxy)benzoyl]-2-phenyl-2H 4H 5H 6H-pyrrolo[3,4-c]pyrazole] reads < 100 nM; that for `CCS(=O)(=O)c1ccc(OC(C)C)c(C(=O)N2Cc3cn(-c4ccccc4F)nc3C2)c1` [Example 74, 5-[5-(Ethanesulfonyl)-2-(propan-2-yloxy)benzoyl]-2-(2-fluorophenyl)-2H 4H 5H 6H-pyrrolo[3,4-c]pyrazole], 100 to 1000 nM.
